Measured values taken from patent US20250197373A1, “SMALL MOLECULE COMPOUND OR SALT THEREOF OR SOLVATE OF THEM, GUANINE NUCLEOTIDE-BINDING PROTEIN G(Q) SUBUNIT ALPHA (GNAQ) INHIBITOR CONTAINING THE SAME AND METHOD FOR TREATING AND/OR PREVENTING CANCER” (INDUSTRIAL TECHNOLOGY RESEARCH INSTITUTE, priority 2023, published 2025).

What was measured:
GNAQ (T96S) = target: T1, GNAQ (T96S) (Homo sapiens, UniProt P50148, T96S); assay: SRE luciferase reporter gene-HEK293 cell line, GNAQ (T96S); assay type: cell-based; details: Cell type T96S, 20% FBS induction, read-out: GNAQ inhibitory rate; for inhibition at 0.9 µM: analytical concentration 900 nM; for inhibition at 2.7 µM: analytical concentration 2,700 nM; for inhibition at 8.1 µM: analytical concentration 8,100 nM
T1 construct: BPS Bioscience (parental reporter cell line) 60406
T1 sequence (P50148 1-359 T96S): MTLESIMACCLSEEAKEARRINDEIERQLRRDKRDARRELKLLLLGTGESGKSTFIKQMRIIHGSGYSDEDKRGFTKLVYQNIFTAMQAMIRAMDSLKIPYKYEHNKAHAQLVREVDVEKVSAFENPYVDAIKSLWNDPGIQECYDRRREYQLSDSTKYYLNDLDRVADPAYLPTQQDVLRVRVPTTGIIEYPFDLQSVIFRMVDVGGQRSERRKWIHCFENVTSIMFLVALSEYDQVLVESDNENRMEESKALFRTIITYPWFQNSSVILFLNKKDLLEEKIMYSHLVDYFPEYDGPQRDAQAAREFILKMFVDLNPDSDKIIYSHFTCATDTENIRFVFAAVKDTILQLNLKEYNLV
Procedure: 7.5×10^4 SRE-293-GNAQ (WT) or SRE-293-GNAQ (T96S) cell lines were seeded in a 24-well plate and cultured in a carbon dioxide incubator at 37° C. SRE-293-GNAQ (WT) or SRE-293-GNAQ (T96S) cell lines was derived from additionally transfecting SRE Reporter—HEK293 Recombinant Cell Line (ERK Pathway) (Catalog number: 60406; BPS Bioscience) cells with an expression vector separately expressing GNAQ (WT) or GNAQ (T96S), and screening a stable expression cell line by the antibiotic, geneticin (type number 10131035; Thermo Fisher Scientific). GNAQ (WT) or GNAQ (T96) expression vector was derived from gene synthesis and point mutation modification of GenScript company's customized services.
After 48 hours of culture, the culture medium in the 24-well plate was replaced with minimal essential medium (MEM) containing only 0.1% fetal bovine serum (FBS) and the cells were cultured overnight.
After overnight culture, the compound to be tested was added to the cells and reacted for 2 hours, and the medium at this point was still MEM medium containing only 0.1% fetal bovine serum. After reacting with the compound to be tested for 2 hours, fetal bovine serum at a final concentration of 20% was added to the cells and reacted for at least 4 hours. After the reaction, the supernatant was removed. Next, 100 μL of cell lysis reagent CelLytic M Cell Lysis Reagent (Catalog number: C2978; Sigma) was added to the cells and aspirated repeatedly several times to form a cell lysate solution with the cells. The cell lysate solution was collected in a microcentrifuge tube and centrifuged at a high speed of 14,000 rpm for 5 minutes. After that, 30 μL of supernatant was taken out and placed in a 96-well white plate for luminescence analysis, and 30 μL of firefly luminescence analysis reagent (Catalog No. E1501; Promega) diluted 3-fold was added and mixed well, and then luminescence detection was performed with a plate enzyme immunoassay analyzer (ELISA reader) to evaluate the effect of the compound to be tested on MAPK signaling induced by GNAQ through the expression of the firefly luciferase reporter gene.
In order to confirm the effect of the compounds on MAPK signaling induced by GNAQ, the screened SRE-HEK293 cells capable of expressing exogenous GNAQ (WT) and GNAQ (T96S) genes were subjected to overnight serum starvation, and 2 hours before induction with 20% fetal bovine serum, the compound to be tested (one of Compound 1 to Compound 15 prepared above) was added to the cells, and after serum induction, the expression of the firefly luciferase reporter gene was measured. Through the above steps, the inhibition of the compound to be tested on GNAQ expression could be evaluated through the expression of the reporter gene in cells.

MCF-7 GNAQ (T96S) cells = assay: Inhibition of growth of mammary gland cancer cells MCF-7 GNAQ (T96S) (PrestoBlue); assay type: cell-based; details: Homo sapiens, MCF7, 168 h, 7 days culture, 2% fetal bovine serum, read-out: Inhibitory activity (evaluated by IC50)
Procedure: Human mammary gland cancer cells, MCF-7 cells and MCF-7 GNAQ (T96S) cells (MCF-7 cells expressing GNAQ (T96S) after GNAQ gene deletion) were cultured in MEM medium.
1×10^3 of the cells mentioned above were seeded in a 96-well plate and cultured overnight (at least 16 hours) in a carbon dioxide incubator.
After overnight incubation, the supernatant was removed. Next, after 200 μL of cell culture medium (containing 2% fetal bovine serum) containing different concentrations of test compound was added to each well of the 96-well plate, the 96-well plate was placed in a 5% carbon dioxide incubator at 37° C. for 7 days further culture. After that, an additional 30 μL of diluted PrestoBlue™ Cell Viability Reagent (Catalog Number: A13261; Thermo Fisher Scientific) (4 μL stock solution and 26 μL culture medium) was added to each well of the 96-well plate and the reaction was continued for further about 1 hour.
Finally, the fluorescence value at the wavelength of 535/615 nm of each well was read with a plate enzyme immunoassay analyzer, and the inhibitory rate of the compound on mammary gland cancer cells were calculated using the following formula.
Moreover, the half maximal inhibitory concentration (IC50) of the compound on the growth of mammary gland cancer cells was calculated with the inhibitory rate of the compound on mammary gland cancer cells at each concentration through the online half maximal inhibitory concentration (IC50) calculation software, IC50 Calculator, provided by AAT Bioquest company on its website (https://www.aatbio.com/tools/ic50-calculator).
Finally, the inhibition of the compound on the growth of mammary gland cancer cells was evaluated by the calculated half maximal inhibitory concentration (IC50) of the compound on the growth of mammary gland cancer cells.
The inhibition of the compound on the growth of breast cancer cells was evaluated by the half maximal inhibitory concentration (IC50) of the compound (one of Compound 1 to Compound 15 prepared above) on the growth of mammary gland cancer cells through the human mammary gland cancer cell line MCF-7 and the human mammary gland cancer cell line MCF-7 GNAQ (T96S) expressing the mutated gene.

Row | inhibition at 0.9 µM (GNAQ (T96S)) [%] | inhibition at 2.7 µM (GNAQ (T96S)) [%] | inhibition at 8.1 µM (GNAQ (T96S)) [%] | IC50 (MCF-7 GNAQ (T96S) cells) [nM] | Compound
1 | < 10 | 40 to 70 | > 70 | 310 to 2500 | FC(F)(F)c1cccc(-c2cccc(-c3ccc(NC(=S)Nc4cc(Cl)nc(Cl)c4)cc3)n2)c1 [Compound 10]
2 | < 10 | 10 to 39 | 40 to 70 | 310 to 2500 | O=C(Nc1cccc(-c2ccnc(-c3ccc(F)c(F)c3)n2)c1)Nc1cc(Cl)nc(Cl)c1 [Compound 4]
3 | 10 to 39 | 40 to 70 | > 70 | 310 to 2500 | O=C(Nc1cccc(-c2cccc(-c3ccncc3)n2)c1)Nc1cc(Cl)nc(Cl)c1 [Compound 13]
4 | < 10 | 10 to 39 | 10 to 39 | 310 to 2500 | O=C(Nc1ccc(-c2ccnc(-c3cccc(C(F)(F)F)c3)n2)cc1)Nc1cc(Cl)nc(Cl)c1 [Compound 7]
5 | < 10 | 10 to 39 | 40 to 70 | < 310 | O=C(Nc1ccc(-c2nc(-c3ccccc3)ncc2Cl)cc1)Nc1cc(Cl)nc(Cl)c1 [Compound 15]
6 | < 10 | 10 to 39 | 40 to 70 | 310 to 2500 | O=C(Nc1ccc(-c2cccc(-c3cccc(C(F)(F)F)c3)n2)cc1)Nc1cc(Cl)nc(Cl)c1 [Compound 9]
7 | < 10 | < 10 | < 10 | 310 to 2500 | O=C(Nc1cccc(-c2ccnc(-c3cccc(C(F)(F)F)c3)n2)c1)c1cc(Cl)nc(Cl)c1 [Compound 5]
8 | < 10 | 40 to 70 | > 70 | 310 to 2500 | N#Cc1cccc(-c2nccc(-c3cccc(NC(=O)Nc4cc(Cl)nc(Cl)c4)c3)n2)c1 [Compound 3]
9 | 10 to 39 | 40 to 70 | > 70 | 310 to 2500 | N#Cc1cccc(-c2cccc(-c3ccc(NC(=S)Nc4cc(Cl)nc(Cl)c4)cc3)n2)c1 [Compound 11]
10 | 10 to 39 | 10 to 39 | > 70 | < 310 | O=C(Nc1cccc(-c2cc(-c3cccc(C(F)(F)F)c3)ncn2)c1)Nc1cc(Cl)nc(Cl)c1 [Compound 14]
11 | < 10 | < 10 | 10 to 39 | 310 to 2500 | O=C(Nc1ccc(-c2ccnc(-c3cccc(C(F)(F)F)c3)n2)cc1)Nc1ccc(Cl)c(C(F)(F)F)c1 [Compound 8]
12 | 10 to 39 | 40 to 70 | 40 to 70 | 310 to 2500 | O=C(Nc1ccc(-c2cccc(-c3ccncc3)n2)cc1)Nc1ccc(Cl)c(C(F)(F)F)c1 [Compound 12]
13 | 10 to 39 | 10 to 39 | 40 to 70 | 310 to 2500 | O=C(Nc1ccc(-c2ccnc(-c3ccncc3)n2)cc1)Nc1ccc(Cl)c(C(F)(F)F)c1 [Compound 6]
14 | < 10 | 10 to 39 | > 70 | 310 to 2500 | O=C(Nc1cccc(-c2ccnc(-c3cccc(C(F)(F)F)c3)n2)c1)Nc1cc(Cl)nc(Cl)c1 [Compound 2]
15 | < 10 | 10 to 39 | > 70 | 310 to 2500 | O=C(Nc1cccc(-c2ccnc(-c3ccnc(Cl)c3)n2)c1)Nc1cc(Cl)nc(Cl)c1 [Compound 1]
